Among the data in ChEMBL document CHEMBL5725273, “Thienopyranones as kinase and epigenetic inhibitors” (2016) are IC50 values, retold here.

The target in assay [1] is Bromodomain-containing protein 4 (Homo sapiens, UniProt O60885). The experiment in a line: (§1) Inhibition Assay: Several TP Scaffold compounds were tested for inhibition activity against isoforms of PI3K (alpha, beta, gamma, and delta isoforms) and the bromodomain protein BRD4 at regions 1 (BRD4-1) and 2 (BRD4-2).
For assay [2], the target named is T1, Phosphatidylinositol 4,5-bisphosphate 3-kinase catalytic subunit delta isoform (Homo sapiens, UniProt O00329).
T1 sequence (O00329 whole entry): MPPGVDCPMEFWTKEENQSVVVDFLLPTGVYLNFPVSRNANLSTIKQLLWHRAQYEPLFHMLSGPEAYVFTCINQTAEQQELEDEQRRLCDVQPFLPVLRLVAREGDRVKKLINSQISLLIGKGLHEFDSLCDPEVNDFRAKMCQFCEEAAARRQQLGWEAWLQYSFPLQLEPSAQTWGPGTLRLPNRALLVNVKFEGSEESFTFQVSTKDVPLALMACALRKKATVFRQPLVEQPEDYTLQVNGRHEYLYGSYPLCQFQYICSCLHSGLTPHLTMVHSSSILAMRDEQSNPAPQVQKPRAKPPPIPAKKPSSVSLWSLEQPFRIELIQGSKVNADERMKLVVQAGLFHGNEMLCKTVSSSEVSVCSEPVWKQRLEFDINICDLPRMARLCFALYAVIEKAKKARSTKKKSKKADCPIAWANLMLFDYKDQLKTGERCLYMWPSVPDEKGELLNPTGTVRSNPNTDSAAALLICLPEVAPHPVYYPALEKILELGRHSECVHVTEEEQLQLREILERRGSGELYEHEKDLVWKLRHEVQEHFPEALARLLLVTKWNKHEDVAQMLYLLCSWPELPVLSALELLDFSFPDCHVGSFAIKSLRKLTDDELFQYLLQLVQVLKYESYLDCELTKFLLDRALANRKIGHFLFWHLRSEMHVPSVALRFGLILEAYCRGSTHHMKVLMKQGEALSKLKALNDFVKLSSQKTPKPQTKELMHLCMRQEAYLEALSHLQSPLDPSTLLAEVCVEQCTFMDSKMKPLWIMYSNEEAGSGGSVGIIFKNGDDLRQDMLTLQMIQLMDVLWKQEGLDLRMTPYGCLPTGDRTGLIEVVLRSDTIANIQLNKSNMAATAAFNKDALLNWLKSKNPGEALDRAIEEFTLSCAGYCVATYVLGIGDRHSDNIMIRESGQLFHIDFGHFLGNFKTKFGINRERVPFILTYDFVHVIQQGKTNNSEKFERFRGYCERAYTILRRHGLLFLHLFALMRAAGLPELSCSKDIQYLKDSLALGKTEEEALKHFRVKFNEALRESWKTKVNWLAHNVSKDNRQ
Described as §1.

Assay [3] has as its target Phosphatidylinositol 4,5-bisphosphate 3-kinase catalytic subunit alpha isoform (Homo sapiens, UniProt P42336). Described as §1.
Assay [4] addresses Phosphatidylinositol 4,5-bisphosphate 3-kinase catalytic subunit gamma isoform (Homo sapiens, UniProt P48736). The assay is described as §1.

Phosphatidylinositol 4,5-bisphosphate 3-kinase catalytic subunit alpha isoform, sequence (P42336 whole entry, canonical isoform): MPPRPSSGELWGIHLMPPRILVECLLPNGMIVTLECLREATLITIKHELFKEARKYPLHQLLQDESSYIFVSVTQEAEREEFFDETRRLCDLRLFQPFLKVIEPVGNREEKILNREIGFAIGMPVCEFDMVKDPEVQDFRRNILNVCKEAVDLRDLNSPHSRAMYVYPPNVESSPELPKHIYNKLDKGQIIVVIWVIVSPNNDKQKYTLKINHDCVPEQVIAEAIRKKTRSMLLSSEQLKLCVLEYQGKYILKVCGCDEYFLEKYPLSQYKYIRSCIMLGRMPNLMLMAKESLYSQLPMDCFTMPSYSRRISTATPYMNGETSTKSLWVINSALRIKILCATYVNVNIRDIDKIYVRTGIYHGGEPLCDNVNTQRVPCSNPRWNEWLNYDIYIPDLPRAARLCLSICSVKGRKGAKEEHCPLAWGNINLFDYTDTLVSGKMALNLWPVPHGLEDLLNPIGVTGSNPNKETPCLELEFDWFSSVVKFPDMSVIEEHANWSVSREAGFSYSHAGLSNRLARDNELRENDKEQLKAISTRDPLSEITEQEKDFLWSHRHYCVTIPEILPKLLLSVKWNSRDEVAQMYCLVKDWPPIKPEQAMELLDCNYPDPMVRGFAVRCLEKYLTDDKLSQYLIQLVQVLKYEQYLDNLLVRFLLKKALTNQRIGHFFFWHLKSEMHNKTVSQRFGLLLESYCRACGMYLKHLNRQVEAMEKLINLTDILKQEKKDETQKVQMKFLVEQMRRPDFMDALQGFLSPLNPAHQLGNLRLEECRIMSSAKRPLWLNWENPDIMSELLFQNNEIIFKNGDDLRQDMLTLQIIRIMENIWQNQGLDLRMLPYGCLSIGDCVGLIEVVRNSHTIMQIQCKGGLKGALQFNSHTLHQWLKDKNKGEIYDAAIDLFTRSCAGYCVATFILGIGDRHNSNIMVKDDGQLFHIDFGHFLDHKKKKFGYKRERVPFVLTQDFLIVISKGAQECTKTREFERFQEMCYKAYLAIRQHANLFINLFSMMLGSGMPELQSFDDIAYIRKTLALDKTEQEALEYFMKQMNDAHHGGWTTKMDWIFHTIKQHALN
Phosphatidylinositol 4,5-bisphosphate 3-kinase catalytic subunit gamma isoform, sequence (P48736 whole entry, canonical isoform): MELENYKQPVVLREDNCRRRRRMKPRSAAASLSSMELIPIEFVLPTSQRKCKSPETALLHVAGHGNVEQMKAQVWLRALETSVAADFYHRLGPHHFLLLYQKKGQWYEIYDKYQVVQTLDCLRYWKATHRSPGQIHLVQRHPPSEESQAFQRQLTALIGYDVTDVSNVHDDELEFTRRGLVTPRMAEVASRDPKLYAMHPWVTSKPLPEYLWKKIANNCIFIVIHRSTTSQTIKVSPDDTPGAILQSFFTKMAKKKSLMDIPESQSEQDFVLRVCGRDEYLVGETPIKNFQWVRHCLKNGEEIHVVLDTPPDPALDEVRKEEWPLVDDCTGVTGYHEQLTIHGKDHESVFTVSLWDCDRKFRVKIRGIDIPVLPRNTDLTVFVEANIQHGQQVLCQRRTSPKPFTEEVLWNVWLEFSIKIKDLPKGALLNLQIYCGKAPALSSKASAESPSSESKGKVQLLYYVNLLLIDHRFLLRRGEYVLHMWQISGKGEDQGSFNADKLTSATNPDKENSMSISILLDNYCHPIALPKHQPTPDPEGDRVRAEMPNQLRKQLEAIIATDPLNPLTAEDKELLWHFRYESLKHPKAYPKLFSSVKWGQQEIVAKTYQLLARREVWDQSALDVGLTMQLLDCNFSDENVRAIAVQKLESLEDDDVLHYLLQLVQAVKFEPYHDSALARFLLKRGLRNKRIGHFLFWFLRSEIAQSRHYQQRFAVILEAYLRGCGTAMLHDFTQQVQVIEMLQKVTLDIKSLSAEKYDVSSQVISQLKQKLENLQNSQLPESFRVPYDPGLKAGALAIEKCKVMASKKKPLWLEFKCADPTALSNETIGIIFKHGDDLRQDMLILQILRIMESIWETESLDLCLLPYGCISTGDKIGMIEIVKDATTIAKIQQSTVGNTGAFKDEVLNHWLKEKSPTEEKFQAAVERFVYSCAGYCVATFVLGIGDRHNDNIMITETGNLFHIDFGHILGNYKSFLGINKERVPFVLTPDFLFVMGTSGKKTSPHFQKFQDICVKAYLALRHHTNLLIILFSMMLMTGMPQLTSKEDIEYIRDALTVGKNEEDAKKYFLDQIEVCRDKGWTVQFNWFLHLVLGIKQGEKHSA

Turning to `CCOC(=O)c1ccc(-c2csc3c(=O)cc(N4CCSCC4)oc23)cc1`, the IC50 was 1.01 µM in assay [1], 2.49 µM in assay [2], 29.1 µM in assay [3] and > 50 µM in assay [4].
